# According to patent EP0322748B1, “Antibiotic NK86-0279, process for production of the same and application of the same” (NIPPON KAYAKU KABUSHIKI KAISHA, priority 1987, dated 1989):
# Columns and labels:
# [1] = test system: mouse pulmonary cancer cells (LL); assay: growth-inhibitory effect on mouse pulmonary cancer cells, dye exclusion method; type: cell-based; settings: 72 h
# Protocol: (§1) The growth-inhibitory effects of the compound of the present invention on mouse pulmonary cancer cells (LL) and human plumonary cancer cells (PC-3) were examined.
# (§2) A 96-well plate was inoculated with mouse pulmonary cancer cells at a ratio of 8.0 x 10² cells per well, while another 96-well plate was inoculated with human pulmonary cancer cells at a ratio of 2.5 x 10³ per well. These cells were incubated in an incubator at 37°C under 5 % CO₂ for 24 hours. Then the compound of the present invention was added thereto at various concentrations. Cells in each well were counted by the dye exclusion method three days after the addition to thereby evaluate the growth-inhibitory effect of the test compound on the mouse pulmonary cancer cells (LL) and that on the human pulmonary cancer cells (PC-3).
# [2] = test system: mouse breast cancer (Ehrlich B); assay: anti-cancer action against grafted mouse breast cancer, tumor volume; type: in vivo
# Source text: (§3) The anti-cancer action of the compound of the present invention against mouse lung cancer (lewis lung carcinoma) and mouse breast cancer (Ehrlich B) was examined. 1 x 10⁶ mouse lung cancer cells or mouse breast cancer cells were grafted into a subcutaneous portion of the groin of an eight week-old male BDF₁ or ICR mouse, and the compound of the present invention was intraperitoneally administered to the mouse in various concentrations every day from two days after the graft once a day for 9 days. On the second day after completion of the administration, the minor axis and the major axis of the tumor were measured, and the volume of the tumor was determined by using the following equation: (minor axis)² x […]/2 [formula] . Then, the percentage inhibition of proliferation of each tumor with respect to the compound of the present invention was determined from the ratio of the volume of the tumor on the groups of administration of the compound of the present invention relative to that on the control group.
# [3] = test system: mouse lung cancer (lewis lung carcinoma); assay: anti-cancer action against grafted mouse lung cancer, tumor volume; type: in vivo; settings: mouse pulmonary cancer
# Source text: as §3
# HeLa S₃ cells = assay: growth-inhibitory effect on HeLa S3 culture cells, dye exclusion method; type: cell-based; settings: Homo sapiens, 72 h, three days after the addition
# Protocol: The growth-inhibitory effect of the compound of the present invention on HeLa S₃ culture cells was examined. A 96-well plate was inoculated with HeLa S₃ cells at a ratio of 1.5 x 10³ cells/well and incubated in an incubator at 37°C under 5% CO2 for 24 hours. One day after the inoculation, the compound of the present invention was added to the culture medium at various concentrations. Three days after the addition, cells in each well were counted by the dye exclusion method to thereby evaluate the growth-inhibitory effect of the compound of the present invention at various concentrations on HeLa S₃ cells.
# [4] = test system: mouse colonic cancer cells (Colon 26); assay: growth-inhibitory effect on mouse colonic cancer cells, dye exclusion method; type: cell-based
# Protocol: The growth-inhibitory effects of the compound of the present invention on mouse colonic cancer cells (Colon 26) and human colonic cancer cells (SWlll6) were examined. A 96-well plate was inoculated with mouse colonic cancer cells at a ratio of 1.5 x 10³ cells per well, while another 96-well plate was inoculated with human colonic cancer cells at a ratio of 3.0 x 10³ per well. These cells were incubated in an incubator at 37°C under 5 % CO₂ for 24 hours. Then the compound of the present invention was added thereto at various concentrations. Cells in each well were counted by the dye exclusion method 65 hours and 96 hours after the addition to thereby evaluate the growth-inhibitory effect of the test compound on the mouse colonic cancer cells and that on the human colonic cancer cells.
# Fusarium roseum f. sp. = assay: antifungal spectrum (minimum inhibitory concentration on agar); type: cell-based; settings: Fusarium sambucinum; Czapek Dox solution agar
# Source text: (§4) The antifungal spectrum of the compound of the present invention was examined.
# Penicillium chrysogenum = assay: as above; type: cell-based; settings: Czapek Dox solution agar
# Source text: as §4
# Botrytis cinerea = assay: as above; type: cell-based; settings: potato sucrose agar medium was used
# Source text: as §4
# Saccharomyces cerevisiae = assay: as above; type: cell-based; settings: Czapek Dox solution agar
# Source text: as §4
# [5] = test system: Sporobolomyces salmonicolor; assay: as above; type: cell-based; settings: Czapek Dox solution agar
# Source text: as §4
# Aspergillus oryzae = assay: as above; type: cell-based; settings: Czapek Dox solution agar
# Source text: as §4
# Rhizopus hangchao = assay: as above; type: cell-based; settings: Czapek Dox solution agar
# Source text: as §4
# Torula herbarum = assay: as above; type: cell-based; settings: Czapek Dox solution agar
# Source text: as §4
# Candida albicans = assay: as above; type: cell-based; settings: Czapek Dox solution agar
# Source text: as §4
# Glomerella cingulata = assay: as above; type: cell-based; settings: Colletotrichum gloeosporioides; Czapek Dox solution agar
# Source text: as §4
# Mucor javanicus = assay: as above; type: cell-based; settings: Czapek Dox solution agar
# Source text: as §4
# Aspergillus niger = assay: as above; type: cell-based; settings: Czapek Dox solution agar
# Source text: as §4
# [6] = test system: human pulmonary cancer cells (PC-3); assay: growth-inhibitory effect on human pulmonary cancer cells, dye exclusion method; type: cell-based; settings: 72 h
# Protocol: as §1, §2
# [7] = 0.063 mg/kg intraperitoneally once a day for 9 days
# [8] = 0.125 mg/kg intraperitoneally once a day for 9 days
# [9] = 0.500 mg/kg intraperitoneally once a day for 9 days
compound,measurement,setting,value
CCC1C=CC=CCC(C)C(O)C(C)(O)C(=O)C(C)C(O)C(C)C(=O)C(C)C(O)C(C)C=CC(=O)OC2C(C)C(CC1)OC1(OC(CC(C)O)C(C)CC1=O)C2CC (stereo not drawn) [NK86-0279],IC50,"[1]; mouse pulmonary cancer cells (LL), three days after the addition, read-out: IC₅₀",0.0098 µg/mL
same,inhibition at 0.024 µg/mL,"[1]; Mus musculus, LL, 0.024 µg/ml, read-out: Growth-inhibitory ratio",30.4%
same,inhibition at 0.061 µg/mL,"[1]; Mus musculus, LL, 0.061 µg/ml, read-out: Growth-inhibitory ratio",-5.7%
same,inhibition at 0.098 µg/mL,"[1]; Mus musculus, LL, 0.098 µg/ml, read-out: Growth-inhibitory ratio",50%
same,inhibition at 0.39 µg/mL,"[1]; Mus musculus, LL, 0.39 µg/ml, read-out: Growth-inhibitory ratio",61%
same,inhibition at 1.56 µg/mL,"[1]; Mus musculus, LL, 1.56 µg/ml, read-out: Growth-inhibitory ratio",92.1%
same,inhibition at 6.25 µg/mL,"[1]; Mus musculus, LL, 6.25 µg/ml, read-out: Growth-inhibitory ratio",114%
same,inhibition at 25 µg/mL,"[1]; Mus musculus, LL, 25 µg/ml, read-out: Growth-inhibitory ratio",110%
same,inhibition at 100 µg/mL,"[1]; Mus musculus, LL, 100 µg/ml, read-out: Growth-inhibitory ratio",109%
same,Growth-inhibitory ratio (tumor volume),[2]; 0.032 mg/kg intraperitoneally once a day for 9 days,22.5%
same,Growth-inhibitory ratio (tumor volume),[2]; [7],-0.4%
same,Growth-inhibitory ratio (tumor volume),[2]; [8],44.3%
same,Growth-inhibitory ratio (tumor volume),"[2]; 0.250 mg/kg intraperitoneally once a day for 9 days, 0.25 mg/kg",67%
same,Growth-inhibitory ratio (tumor volume),[2]; [9],61.7%
same,Growth-inhibitory ratio (tumor volume),[3]; [7],46.3%
same,Growth-inhibitory ratio (tumor volume),[3]; [8],57.1%
same,Growth-inhibitory ratio (tumor volume),[3]; 0.250 mg/kg intraperitoneally once a day for 9 days,8.9%
same,Growth-inhibitory ratio (tumor volume),[3]; [9],59.6%
same,IC50,"HeLa S₃ cells; HeLa S₃ cells, read-out: IC₅₀",0.0027 µg/mL
same,inhibition at 0.00064 µg/mL,"HeLa S₃ cells; HeLa, 0.00064 µg/ml, read-out: Growth-inhibitory ratio",22.9%
same,inhibition at 0.0032 µg/mL,"HeLa S₃ cells; HeLa, 0.0032 µg/ml, read-out: Growth-inhibitory ratio",53.5%
same,inhibition at 0.016 µg/mL,"HeLa S₃ cells; HeLa, 0.016 µg/ml, read-out: Growth-inhibitory ratio",61.2%
same,inhibition at 0.08 µg/mL,"HeLa S₃ cells; HeLa, 0.08 µg/ml, read-out: Growth-inhibitory ratio",73.5%
same,inhibition at 0.4 µg/mL,"HeLa S₃ cells; HeLa, 0.4 µg/ml, read-out: Growth-inhibitory ratio",81.2%
same,inhibition at 0.0061 µg/mL,"[4]; Mus musculus, Colon 26, 0.0061 µg/ml, read-out: Growth-inhibitory ratio",84.6%
same,inhibition at 0.024 µg/mL,"[4]; Mus musculus, Colon 26, 0.024 µg/ml, read-out: Growth-inhibitory ratio",87.5%
same,inhibition at 0.098 µg/mL,"[4]; Mus musculus, Colon 26, 0.098 µg/ml, read-out: Growth-inhibitory ratio",86.1%
same,inhibition at 0.39 µg/mL,"[4]; Mus musculus, Colon 26, 0.39 µg/ml, read-out: Growth-inhibitory ratio",87.6%
same,inhibition at 1.56 µg/mL,"[4]; Mus musculus, Colon 26, 1.56 µg/ml, read-out: Growth-inhibitory ratio",94.2%
same,inhibition at 6.25 µg/mL,"[4]; Mus musculus, Colon 26, 6.25 µg/ml, read-out: Growth-inhibitory ratio",105%
same,inhibition at 25 µg/mL,"[4]; Mus musculus, Colon 26, 25 µg/ml, read-out: Growth-inhibitory ratio",108%
same,inhibition at 100 µg/mL,"[4]; Mus musculus, Colon 26, 100 µg/ml, read-out: Growth-inhibitory ratio",104%
same,IC50,"[4]; mouse colonic cancer cells (Colon 26), read-out: IC₅₀",< 0.0061 µg/mL
same,MIC,Fusarium roseum f. sp.,6.25 µg/mL
same,MIC,Penicillium chrysogenum,1.56 µg/mL
same,MIC,Botrytis cinerea,12.5 µg/mL
same,MIC,Saccharomyces cerevisiae,> 100 µg/mL
same,MIC,[5],6.25 µg/mL
same,MIC,Aspergillus oryzae,3.13 µg/mL
same,MIC,Rhizopus hangchao,6.25 µg/mL
same,MIC,Torula herbarum,3.13 µg/mL
same,MIC,Candida albicans,> 100 µg/mL
same,MIC,Glomerella cingulata,6.25 µg/mL
same,MIC,Mucor javanicus,> 100 µg/mL
same,MIC,Aspergillus niger,6.25 µg/mL
same,IC50,"[6]; human pulmonary cancer cells (PC-3), three days after the addition, read-out: IC₅₀",2.13 µg/mL
same,inhibition at 0.024 µg/mL,"[6]; Homo sapiens, PC-3, 0.024 µg/ml, read-out: Growth-inhibitory ratio",25.1%
same,inhibition at 0.061 µg/mL,"[6]; Homo sapiens, PC-3, 0.061 µg/ml, read-out: Growth-inhibitory ratio",12%
same,inhibition at 0.098 µg/mL,"[6]; Homo sapiens, PC-3, 0.098 µg/ml, read-out: Growth-inhibitory ratio",28.1%
same,inhibition at 0.39 µg/mL,"[6]; Homo sapiens, PC-3, 0.39 µg/ml, read-out: Growth-inhibitory ratio",28%
same,inhibition at 1.56 µg/mL,"[6]; Homo sapiens, PC-3, 1.56 µg/ml, read-out: Growth-inhibitory ratio",38.1%
same,inhibition at 6.25 µg/mL,"[6]; Homo sapiens, PC-3, 6.25 µg/ml, read-out: Growth-inhibitory ratio",85.9%
same,inhibition at 25 µg/mL,"[6]; Homo sapiens, PC-3, 25 µg/ml, read-out: Growth-inhibitory ratio",99.3%
same,inhibition at 100 µg/mL,"[6]; Homo sapiens, PC-3, 100 µg/ml, read-out: Growth-inhibitory ratio",97.2%
